We go through three compounds from patent EP4620959A1, “CYCLIC COMPOUNDS USED AS MULTI-TARGET KINASE INHIBITORS AND PREPARATION METHOD THEREFOR” (Shanghai Institute of Organic Chemistry, Chinese Academy of …, priority 2022, dated 2024).

One data set deals with FGFR4 (Homo sapiens, UniProt P22455). The experiment in a line: Kinase activity inhibition assay (HTRF), FGFR4. In kind it is biochemical. Particulars: ATP 50 µM. On the procedure:
(§1) The kinase activity inhibition assay was performed by ICE Bioscience (Beijing) using ADP-Glo and HTRF methods.
(§2) Table 1.2-2 HTRF Kinase and Substrate Formulation
(§3) • 1) 2×ATP/substrate solution and 2×kinase/metal ion solution were prepared using kinase reaction buffer; • 2) 20 nL (ADP-GLo) or 40 nL (HTRF) of compound dilution was transferred using Echo 655 onto a 384-well assay plate; after centrifugation, 2 µL of 2×kinase and metal ion solution were added to the 384-well assay plate, centrifuged at 1000 rpm for 1 min, and incubated at 25°C for 10 min; • 3) 2 µL of 2×substrate and ATP solution were added to the 384-well assay plate, centrifuged at 1000 rpm for 1 min, and incubated at 25°C for 60 min. • 4) 4 µL of ADP-Glo was transferred to the 384-well assay plate, entrifuged at 1000 rpm for 1 min, and incubated at 25°C for 40 min. • 5) 8 µL of detection solution was transferred to the 384-well assay plate, centrifuged at 1000 rpm for 1 min, and incubated at 25°C for 40 min. • 6) Luminescence signals was read using a multifunctional microplate reader.
(§4) SD is the standard error, and AVE is the average value. Table 2-1 LRRK2 Activity Inhibition Test Results
For orientation: TR-FRET usually uses a lanthanide donor and a delayed reading to cut background.

In another data set the target is FGFR4 N535K (Homo sapiens, UniProt P22455, N535K). The experiment in a line: Kinase activity inhibition assay (HTRF), FGFR4 N535K. In kind it is biochemical. As to conditions: ATP 100 µM. As for the experimental part:
as §1, §2, §3, §4

Another data set has as its target FGFR4 V550L (Homo sapiens, UniProt P22455, V550L). The experiment in a line: Kinase activity inhibition assay (ADP-Glo), FGFR4 V550L. In kind it is biochemical. As to conditions: ATP 20 µM. On the procedure: as §1
(§5) Table 1.1-1 ADP-Glo Buffer
(§6) Table 1.2-1 ADP-Glo Kinase and Substrate Formulation
as §4
For orientation: ADP-Glo first removes unused ATP, then detects ADP through luciferase.

In the next data set the target is DYRK2 (Homo sapiens, UniProt Q92630). Nature of the data set: Kinase activity inhibition assay (ADP-Glo), DYRK2. In kind it is biochemical. Particulars: ATP 5 µM. As for the experimental part:
as §1, §5, §6, §4

For the next data set, the target named is FGFR1 (Homo sapiens, UniProt P11362). The experiment in a line: Kinase activity inhibition assay (HTRF), FGFR1. In kind it is biochemical. As to conditions: ATP 40 µM. As for the experimental part: as §1, §2, §3, §4
Another data set addresses FGFR2 (Homo sapiens, UniProt P21802). Nature of the data set: Kinase activity inhibition assay (HTRF), FGFR2. As to conditions: ATP 20 µM. In kind it is biochemical. On the procedure: as §1, §2, §3, §4
The next data set deals with FGFR3 (Homo sapiens, UniProt P22607). Nature of the data set: Kinase activity inhibition assay (HTRF), FGFR3. In kind it is biochemical. Particulars: ATP 50 µM. On the procedure: as §1, §2, §3, §4
Sequence of FGFR3 (P22607 23-806): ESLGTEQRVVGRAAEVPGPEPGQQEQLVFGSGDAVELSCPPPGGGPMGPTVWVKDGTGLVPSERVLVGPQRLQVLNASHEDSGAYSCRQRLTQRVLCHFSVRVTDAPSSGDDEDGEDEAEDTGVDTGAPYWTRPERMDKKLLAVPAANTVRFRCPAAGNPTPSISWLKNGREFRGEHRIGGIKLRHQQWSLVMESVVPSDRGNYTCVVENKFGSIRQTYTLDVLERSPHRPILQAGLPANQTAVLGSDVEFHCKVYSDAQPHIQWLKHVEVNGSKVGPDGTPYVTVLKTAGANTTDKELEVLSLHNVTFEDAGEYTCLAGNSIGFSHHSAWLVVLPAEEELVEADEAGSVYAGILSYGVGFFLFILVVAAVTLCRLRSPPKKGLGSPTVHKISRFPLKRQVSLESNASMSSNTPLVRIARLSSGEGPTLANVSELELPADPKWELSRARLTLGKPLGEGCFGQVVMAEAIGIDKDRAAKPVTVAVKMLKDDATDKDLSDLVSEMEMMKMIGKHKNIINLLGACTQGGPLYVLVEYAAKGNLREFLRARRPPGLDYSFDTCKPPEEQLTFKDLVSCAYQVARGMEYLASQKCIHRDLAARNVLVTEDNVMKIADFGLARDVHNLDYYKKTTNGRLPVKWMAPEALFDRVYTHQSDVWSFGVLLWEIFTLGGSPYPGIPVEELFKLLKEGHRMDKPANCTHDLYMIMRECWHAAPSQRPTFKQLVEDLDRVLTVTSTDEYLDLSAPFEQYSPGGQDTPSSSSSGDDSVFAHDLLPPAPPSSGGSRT
A further data set concerns the target FGFR2 V564I (Homo sapiens, UniProt P21802, V564I). The experiment in a line: Kinase activity inhibition assay (HTRF), FGFR2 V564I. In kind it is biochemical. Particulars: ATP 20 µM. As for the experimental part: as §1, §2, §3, §4
Another data set has as its target FGFR3 K650M (Homo sapiens, UniProt P22607, K650M). The experiment in a line: Kinase activity inhibition assay (HTRF), FGFR3 K650M. Particulars: ATP 12 µM. In kind it is biochemical. On the procedure:
as §1, §2, §4

For the next data set, the target named is FGFR3 V555L (Homo sapiens, UniProt P22607, V555L). Nature of the data set: Kinase activity inhibition assay (HTRF), FGFR3 V555L. In kind it is biochemical. Particulars: ATP 20 µM. As for the experimental part:
as §1, §2, §3, §4

Another data set addresses RET V804L (Homo sapiens, UniProt P07949, V804L). The experiment in a line: Kinase activity inhibition assay (HTRF), RET V804L. In kind it is biochemical. As to conditions: ATP 5 µM. As for the experimental part:
as §1, §2, §3, §4

The next data set deals with TYRO3 (Homo sapiens, UniProt Q06418). The experiment in a line: Kinase activity inhibition assay (HTRF), TYRO3. In kind it is biochemical. Particulars: ATP 0.5 µM. On the procedure:
as §1, §2, §4

The target in another data set is FGFR1 V561M (Homo sapiens, UniProt P11362, V561M). Nature of the data set: Kinase activity inhibition assay (HTRF), FGFR1 V561M. As to conditions: ATP 20 µM. In kind it is biochemical. On the procedure:
as §1, §2, §3, §4

In a further data set the target is FGFR4 V550M (Homo sapiens, UniProt P22455, V550M). Nature of the data set: Kinase activity inhibition assay (HTRF), FGFR4 V550M. In kind it is biochemical. Particulars: ATP 60 µM. As for the experimental part: as §1, §2, §4
Sequence of FGFR4 V550M (P22455 22-802 V550M): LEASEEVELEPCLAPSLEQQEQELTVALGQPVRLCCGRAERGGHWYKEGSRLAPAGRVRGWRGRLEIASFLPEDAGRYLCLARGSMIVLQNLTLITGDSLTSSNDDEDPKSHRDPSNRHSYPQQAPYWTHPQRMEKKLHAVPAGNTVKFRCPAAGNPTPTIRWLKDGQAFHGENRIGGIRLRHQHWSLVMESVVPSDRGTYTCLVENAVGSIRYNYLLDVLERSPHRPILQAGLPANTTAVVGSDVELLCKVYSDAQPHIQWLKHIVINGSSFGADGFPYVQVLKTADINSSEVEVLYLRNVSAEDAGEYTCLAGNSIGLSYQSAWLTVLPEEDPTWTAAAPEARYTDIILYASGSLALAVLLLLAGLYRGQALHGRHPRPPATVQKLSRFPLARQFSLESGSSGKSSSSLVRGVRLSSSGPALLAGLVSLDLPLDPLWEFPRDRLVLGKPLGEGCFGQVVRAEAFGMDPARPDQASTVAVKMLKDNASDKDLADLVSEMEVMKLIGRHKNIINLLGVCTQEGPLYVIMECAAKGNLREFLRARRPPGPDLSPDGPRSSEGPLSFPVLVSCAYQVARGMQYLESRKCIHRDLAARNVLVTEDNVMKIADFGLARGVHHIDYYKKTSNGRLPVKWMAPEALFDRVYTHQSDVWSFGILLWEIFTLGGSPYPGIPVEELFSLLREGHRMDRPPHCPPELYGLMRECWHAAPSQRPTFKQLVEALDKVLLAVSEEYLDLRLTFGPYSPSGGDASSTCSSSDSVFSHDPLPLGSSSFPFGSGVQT
A further data set has as its target FGFR2 V564F (Homo sapiens, UniProt P21802, V564F). The experiment in a line: Kinase activity inhibition assay (HTRF), FGFR2 V564F. In kind it is biochemical. Particulars: ATP 15 µM. As for the experimental part:
as §1, §2, §3, §4

Another data set deals with FGFR3 V555M (Homo sapiens, UniProt P22607, V555M). The experiment in a line: Kinase activity inhibition assay (HTRF), FGFR3 V555M. In kind it is biochemical. Particulars: ATP 20 µM. On the procedure: as §1, §2, §3, §4
Sequence of FGFR3 V555M (P22607 23-806 V555M): as the sequence (P22607 23-806) above, with V533M counted along it
The target in the next data set is FGFR2 N549H (Homo sapiens, UniProt P21802, N549H). The experiment in a line: Kinase activity inhibition assay (HTRF), FGFR2 N549H. In kind it is biochemical. As to conditions: ATP 9 µM. As for the experimental part: as §1, §2, §4
Sequence of FGFR2 N549H (P21802 22-821 N549H): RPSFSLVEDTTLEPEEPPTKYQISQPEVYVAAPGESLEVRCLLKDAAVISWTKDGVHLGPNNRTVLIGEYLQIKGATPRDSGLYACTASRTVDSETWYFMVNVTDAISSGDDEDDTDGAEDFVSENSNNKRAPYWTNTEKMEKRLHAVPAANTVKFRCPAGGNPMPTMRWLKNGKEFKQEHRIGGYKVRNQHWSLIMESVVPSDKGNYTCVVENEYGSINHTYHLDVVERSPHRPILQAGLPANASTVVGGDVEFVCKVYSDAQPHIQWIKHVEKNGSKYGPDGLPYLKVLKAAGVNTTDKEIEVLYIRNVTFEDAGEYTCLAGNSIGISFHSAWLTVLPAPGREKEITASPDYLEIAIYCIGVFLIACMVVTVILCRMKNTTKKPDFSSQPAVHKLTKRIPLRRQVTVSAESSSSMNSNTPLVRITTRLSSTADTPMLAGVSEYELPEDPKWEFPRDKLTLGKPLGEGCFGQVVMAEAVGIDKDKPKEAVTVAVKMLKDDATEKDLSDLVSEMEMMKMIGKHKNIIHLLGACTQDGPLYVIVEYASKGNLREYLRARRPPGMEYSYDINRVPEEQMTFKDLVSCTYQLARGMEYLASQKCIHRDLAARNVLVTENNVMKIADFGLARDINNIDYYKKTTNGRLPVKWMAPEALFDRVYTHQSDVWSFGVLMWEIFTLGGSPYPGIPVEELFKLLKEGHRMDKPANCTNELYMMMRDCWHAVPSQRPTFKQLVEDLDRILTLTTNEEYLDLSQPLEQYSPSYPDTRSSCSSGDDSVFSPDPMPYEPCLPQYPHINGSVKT
A further data set has as its target FLT1 (Homo sapiens, UniProt P17948). The experiment in a line: Kinase activity inhibition assay (ADP-Glo), FLT1. In kind it is biochemical. Particulars: ATP 50 µM. On the procedure: as §1, §5, §6, §3, §4
A further data set addresses FLT4 (Homo sapiens, UniProt P35916). Nature of the data set: Kinase activity inhibition assay (HTRF), FLT4. In kind it is biochemical. As to conditions: ATP 32 µM. On the procedure:
as §1, §2, §3, §4

For the next data set, the target named is KDR (Homo sapiens, UniProt P35968). The experiment in a line: Kinase activity inhibition assay (HTRF), KDR. In kind it is biochemical. Particulars: ATP 4 µM. As for the experimental part:
as §1, §2, §4

For the next data set, the target named is FLT3 (Homo sapiens, UniProt P36888). Nature of the data set: Kinase activity inhibition assay (HTRF), FLT3. In kind it is biochemical. Particulars: ATP 2 µM. On the procedure:
as §1, §2, §3, §4

The nature of data set [1]: Oral pharmacokinetic study in rats. Particulars: rat, in vivo, male SD rats, oral gavage, 1% MC; for AUC(0-t) at 8 h: read-out: AUC0-8. On the procedure: Drug preparation: 1% MC was added to the compound, ground, and shaken uniformly. Samples were collected at 5 min, 15 min, 30 min, 1 h, 2 h, 4 h, and 8 h post-dose, followed by analysis using liquid chromatography-tandem mass spectrometry (LC-MS/MS). Table 3 PK Data of Selected Compounds

Another data set deals with PDGFRα (Homo sapiens, UniProt P16234). Nature of the data set: Kinase activity inhibition assay (HTRF), PDGFRα. In kind it is biochemical. As to conditions: ATP 0.5 µM. As for the experimental part: as §1, §2, §3, §4

Read-outs that look alike come from different tables or passages of the source.

Sequence of FGFR4 N535K (P22455 22-802 N535K): as the sequence (P22455 22-802 V550M) above, with N514K, M529V counted along it
Sequence of FGFR4 (P22455 22-802): as the sequence (P22455 22-802 V550M) above, with M529V counted along it
Sequence of KDR (P35968 20-1356): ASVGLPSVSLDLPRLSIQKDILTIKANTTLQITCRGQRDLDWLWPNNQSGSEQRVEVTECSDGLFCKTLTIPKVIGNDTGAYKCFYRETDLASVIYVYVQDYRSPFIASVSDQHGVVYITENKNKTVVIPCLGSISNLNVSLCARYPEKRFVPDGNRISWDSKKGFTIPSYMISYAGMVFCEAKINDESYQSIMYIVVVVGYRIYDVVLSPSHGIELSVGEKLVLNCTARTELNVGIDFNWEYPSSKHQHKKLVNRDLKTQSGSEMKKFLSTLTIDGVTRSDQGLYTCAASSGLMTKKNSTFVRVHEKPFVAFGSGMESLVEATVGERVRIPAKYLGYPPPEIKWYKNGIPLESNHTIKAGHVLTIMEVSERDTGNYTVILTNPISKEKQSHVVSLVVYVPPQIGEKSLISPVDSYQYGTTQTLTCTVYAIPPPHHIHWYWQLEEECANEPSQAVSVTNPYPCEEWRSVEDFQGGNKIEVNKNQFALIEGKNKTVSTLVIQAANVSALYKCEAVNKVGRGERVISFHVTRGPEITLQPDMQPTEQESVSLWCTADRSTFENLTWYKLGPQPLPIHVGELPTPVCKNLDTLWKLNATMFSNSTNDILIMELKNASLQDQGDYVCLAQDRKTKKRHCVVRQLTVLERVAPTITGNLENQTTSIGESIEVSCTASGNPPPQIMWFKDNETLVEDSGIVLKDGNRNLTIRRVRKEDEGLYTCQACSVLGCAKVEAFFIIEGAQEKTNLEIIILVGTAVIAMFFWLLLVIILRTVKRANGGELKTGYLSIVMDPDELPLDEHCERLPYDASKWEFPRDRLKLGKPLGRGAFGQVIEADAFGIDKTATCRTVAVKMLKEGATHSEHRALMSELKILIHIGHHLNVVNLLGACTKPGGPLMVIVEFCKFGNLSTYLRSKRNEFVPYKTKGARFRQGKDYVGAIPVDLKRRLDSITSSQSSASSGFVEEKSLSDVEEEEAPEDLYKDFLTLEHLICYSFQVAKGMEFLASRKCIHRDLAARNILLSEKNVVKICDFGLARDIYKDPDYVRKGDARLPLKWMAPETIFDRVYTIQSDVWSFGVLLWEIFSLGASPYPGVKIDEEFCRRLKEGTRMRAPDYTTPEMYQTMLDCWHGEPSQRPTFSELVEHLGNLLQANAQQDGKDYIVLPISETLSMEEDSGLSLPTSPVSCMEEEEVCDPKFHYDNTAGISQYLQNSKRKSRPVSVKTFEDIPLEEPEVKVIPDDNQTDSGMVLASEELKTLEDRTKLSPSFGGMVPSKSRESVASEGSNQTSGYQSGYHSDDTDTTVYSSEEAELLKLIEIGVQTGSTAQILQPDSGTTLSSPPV
Sequence of TYRO3 (Q06418 41-890): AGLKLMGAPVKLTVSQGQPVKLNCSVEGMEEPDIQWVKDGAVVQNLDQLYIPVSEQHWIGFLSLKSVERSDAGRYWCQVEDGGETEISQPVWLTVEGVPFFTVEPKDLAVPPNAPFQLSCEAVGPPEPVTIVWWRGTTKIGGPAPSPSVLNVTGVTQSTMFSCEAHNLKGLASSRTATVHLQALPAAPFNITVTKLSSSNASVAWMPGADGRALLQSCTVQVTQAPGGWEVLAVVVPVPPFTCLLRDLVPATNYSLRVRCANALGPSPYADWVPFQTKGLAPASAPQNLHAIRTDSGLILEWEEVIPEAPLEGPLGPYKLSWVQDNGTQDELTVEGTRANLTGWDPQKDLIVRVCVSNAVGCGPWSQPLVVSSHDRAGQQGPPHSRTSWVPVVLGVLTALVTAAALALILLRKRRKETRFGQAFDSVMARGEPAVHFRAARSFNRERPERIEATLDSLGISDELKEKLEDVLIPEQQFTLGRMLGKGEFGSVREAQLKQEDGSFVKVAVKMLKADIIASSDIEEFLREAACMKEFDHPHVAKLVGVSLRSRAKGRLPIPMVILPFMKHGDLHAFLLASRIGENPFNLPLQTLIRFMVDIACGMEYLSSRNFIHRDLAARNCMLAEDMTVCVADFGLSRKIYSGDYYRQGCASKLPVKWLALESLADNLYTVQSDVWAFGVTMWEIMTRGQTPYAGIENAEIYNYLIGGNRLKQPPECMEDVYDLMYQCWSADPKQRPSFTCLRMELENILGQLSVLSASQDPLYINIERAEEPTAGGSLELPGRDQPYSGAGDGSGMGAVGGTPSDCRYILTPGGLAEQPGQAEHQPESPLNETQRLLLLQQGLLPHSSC
Sequence of FGFR3 K650M (P22607 23-806 K650M): as the sequence (P22607 23-806) above, with K628M counted along it
Sequence of FGFR2 (P21802 22-821): as the sequence (P21802 22-821 N549H) above, with H528N counted along it
Sequence of FGFR2 V564F (P21802 22-821 V564F): as the sequence (P21802 22-821 N549H) above, with H528N, V543F counted along it
Sequence of FGFR2 V564I (P21802 22-821 V564I): as the sequence (P21802 22-821 N549H) above, with H528N, V543I counted along it
Sequence of FGFR4 V550L (P22455 22-802 V550L): as the sequence (P22455 22-802 V550M) above, with M529L counted along it
Sequence of FGFR3 V555L (P22607 23-806 V555L): as the sequence (P22607 23-806) above, with V533L counted along it

As a reminder, the IC50 is the concentration needed to halve the response being measured. A higher IC50 goes with a need for much substance. `C=CC(=O)N[C@H]1CCOC[C@H]1Nc1ncc2cc(-c3c(Cl)c(OC)cc(OC)c3Cl)ccc2n1` [BLU554]: the IC50 was 2.98 nM against FGFR4 and 42.5 nM at FGFR4 N535K.

As usually defined, the Cmax is the peak of the concentration-time curve. The term Tmax denotes the time from dosing to the highest level. The term half-life denotes the time needed for the level to fall by half in the phase considered. Low values mean fast loss, high ones slow loss. Take `Cc1nn2cc1Nc1ncc(C(F)(F)F)c(n1)NCCCNC(=O)C2(C)C` [Example T-1, (E)-3^3,4,4-Trimethyl-15-(trifluoromethyl)-3^1H-2,6,10-triaza-1(2,4)-pyrimidina-3(4,1)-pyrazolacyclodecan-5-one]: the IC50 on FGFR4 V550L turned out to be 67.4 nM; on DYRK2, 248 nM; against FGFR1, 135 nM; against FGFR2, 21.8 nM; against FGFR3 it was 50.2 nM; against FGFR4, 32.9 nM. In addition, the IC50 amounted to 76.1 nM on FGFR2 V564I; 9.1 nM against FGFR3 K650M; 5.09 nM against FGFR3 V555L; 175 nM against RET V804L; 609 nM against FGFR4 N535K; 278 nM against TYRO3. Further, the IC50 is 26.7 nM against FGFR1 V561M; 126 nM against FGFR4 V550M; 8.22 nM at FGFR2 V564F; 12.7 nM against FGFR3 V555M; 16.4 nM at FGFR2 N549H; 15.2 nM against FLT1. The results for the IC50 on FLT4, against KDR and against FLT3 were 65.1 nM, 18.9 nM and 370 nM, respectively. The Cmax in data set [1] (3 mg/kg, dose 3mpk) worked out at 754 ng/mL. Further, in data set [1] (3 mg/kg, dose 3mpk), the Tmax was 1 h. In [1] (3 mg/kg, dose 3mpk), this compound showed a half-life of 2.3 h. For the same compound, the AUC(0-t) at 8 h in [1] (3 mg/kg, dose 3mpk) is 3820 ng·h/mL.

With `Cc1nn2cc1Nc1ncc3c(Cl)cc(n3n1)CCCNC(=O)C2(C)C` [Example T-25, (1^1Z,3^4E)-1^5-Chloro-3^3,4,4-trimethyl-3^1H-2,6-diaza-1(2,7)-pyrrolo[2,1-f][1,2,4]triazine-3(4,1)-pyrazolacyclononan-5-one], the IC50 against FGFR4 V550L amounted to 208 nM; at DYRK2, 27.7 nM; against FGFR1, 180 nM; against FGFR2, 31.9 nM; against FGFR3 it was 67.5 nM; against FGFR4, 58.3 nM. In addition, the IC50 turned out to be 60.2 nM against FGFR2 V564I; 14.1 nM at FGFR3 K650M; 8.81 nM against FGFR3 V555L; 43.9 nM against RET V804L; 621 nM against FGFR4 N535K; 56.1 nM against TYRO3. Besides, the concentration for half-maximal inhibition (IC50) on FGFR1 V561M was 13.8 nM; at FGFR4 V550M, 105 nM; at FGFR2 V564F, 1.73 nM; against FGFR3 V555M, 5.07 nM; at FGFR2 N549H, 17.4 nM; against FLT1 it was 8.83 nM. Moreover, the IC50 on FLT4 turned out to be 19.2 nM; against PDGFRα, 67 nM; against KDR it was 7.67 nM; against FLT3, 88.1 nM. Also, the Cmax in data set [1] (5 mg/kg, dose 5mpk) was 630 ng/mL. In data set [1] (5 mg/kg, dose 5mpk), the Tmax was determined as 1 h. For the same compound, in [1] (5 mg/kg, dose 5mpk), the half-life is 1.73 h. Moreover, in data set [1] (5 mg/kg, dose 5mpk), the AUC(0-t) at 8 h came to 2210 ng·h/mL.
